Assay results reported in publication PMC12219075 (Scientific Reports, 2025).

The molecules below were run against Proto-oncogene tyrosine-protein kinase Src (SRC) (Homo sapiens, UniProt P12931) (assay: mobility shift kinase assay).
Sequence of Proto-oncogene tyrosine-protein kinase Src (SRC) (P12931 2-536): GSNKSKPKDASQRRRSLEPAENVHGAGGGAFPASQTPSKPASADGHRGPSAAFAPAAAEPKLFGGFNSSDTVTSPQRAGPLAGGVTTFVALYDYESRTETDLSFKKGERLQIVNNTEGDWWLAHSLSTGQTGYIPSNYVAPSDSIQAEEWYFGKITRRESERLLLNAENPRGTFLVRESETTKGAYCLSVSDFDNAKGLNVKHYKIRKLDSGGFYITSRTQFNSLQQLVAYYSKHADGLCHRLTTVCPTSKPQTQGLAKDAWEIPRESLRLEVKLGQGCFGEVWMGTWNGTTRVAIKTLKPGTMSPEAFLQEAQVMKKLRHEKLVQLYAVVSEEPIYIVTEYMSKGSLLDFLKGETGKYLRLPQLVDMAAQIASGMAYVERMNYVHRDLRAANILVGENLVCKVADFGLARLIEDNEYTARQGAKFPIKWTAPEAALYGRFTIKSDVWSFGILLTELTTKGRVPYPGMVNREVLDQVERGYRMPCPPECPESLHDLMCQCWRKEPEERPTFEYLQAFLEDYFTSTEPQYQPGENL
Assay type: biochemical
An IC50 of 22.5 µM was found for `C[C@@H]1CC[C@]2(C(=O)O)CC[C@]3(C)C(=CC[C@@H]4[C@@]5(C)C[C@@H](O)[C@@H](O)C(C)(C)[C@@H]5CC[C@]43C)[C@@H]2[C@]1(C)O` [compound 99, 2α,3α,19α-trihydroxyurs-12-en-28-oic acid] in this work. An IC50 of 26.9 µM was found for `CC1(C)CC[C@]2(C(=O)O)CC[C@]3(C)C(=CC[C@@H]4[C@@]5(C)C[C@@H](O)[C@H](O)C(C)(C)[C@@H]5CC[C@]43C)[C@@H]2C1` [compound 102, crataegolic acid] in this work. An IC50 of 29.9 µM was found for `CC1(C)CC[C@]2(C(=O)O)CC[C@]3(C)C(=CC[C@@H]4[C@@]5(C)CC[C@H](O)C(C)(C)[C@@H]5CC[C@]43C)[C@@H]2C1` [compound 116, oleanolic acid] in this work.
